Measured values reported in ChEMBL document CHEMBL1201862, “PubChem BioAssay data set” (2004).
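Following 48 hours of exposure in 96-well plates, responses at five concentrations were used to interpolate endpoints linearly. GI50 is the concentration that inhibits growth by half.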 The source made the active and inactive calls. Cut-off read from the data, not from the text of the source: active = GI50 up to about 1.1 µM and inactive = higher.

How the values were obtained:
Assay in all cases: DTP human tumour cell line panel, 48 h
[1] = test system: 786-0
[2] = test system: A549
[3] = test system: ACHN
[4] = test system: BT-549
[5] = test system: CAKI-1
[6] = test system: CCRF-CEM
[7] = test system: COLO 205
[8] = test system: DU-145
[9] = test system: EKVX
[10] = test system: HCC 2998
[11] = test system: HCT-116
[12] = test system: HCT-15
[13] = test system: HL-60
[14] = test system: HOP-62
[15] = test system: HOP-92
[16] = test system: HT-29
[17] = test system: Hs-578T
[18] = test system: IGROV-1
[19] = test system: K562
[20] = test system: KM12
[21] = test system: LOX IMVI
[22] = test system: M14
[23] = test system: MCF7
[24] = test system: MDA-MB-231
[25] = test system: MDA-MB-435
[26] = test system: MDA-N
[27] = test system: MOLT-4
[28] = test system: Malme-3M
[29] = test system: NCI-H226
[30] = test system: NCI-H460
[31] = test system: NCI-H522
[32] = test system: NCI/ADR-RES
[33] = test system: OVCAR-4
[34] = test system: OVCAR-5
[35] = test system: OVCAR-8
[36] = test system: PC-3
[37] = test system: RPMI-8226
[38] = test system: RXF 393
[39] = test system: SF-268
[40] = test system: SF-295
[41] = test system: SF-539
[42] = test system: SK-MEL-28
[43] = test system: SK-MEL-2
[44] = test system: SK-MEL-5
[45] = test system: SK-OV-3
[46] = test system: SN12C
[47] = test system: SNB-19
[48] = test system: SNB-75
[49] = test system: SR
[50] = test system: SW-620
[51] = test system: T47D
[52] = test system: TK-10
[53] = test system: U-251
[54] = test system: UACC-257
[55] = test system: UACC-62
[56] = test system: UO-31
[57] = test system: NCI-H23
[58] = test system: OVCAR-3

Measured: GI50

COc1cc(-c2cc(=O)c3c(OC)c(OC)c(OC)c(OC)c3o2)c(OC)c(OC)c1OC
30.3 µM: [12]
inactive: [1] 47.5 µM | [2] 48.1 µM | [3] 22 µM | [4] 17.6 µM | [5] 27.5 µM | [6] 50.7 µM | [7] 45.8 µM | [8] 43.4 µM | [9] 66.8 µM | [10] 49.3 µM | [11] 30.7 µM | [13] 46.7 µM | [14] > 100 µM | [15] 13.9 µM | [16] 31 µM | [17] 19.8 µM | [18] 12.3 µM | [19] 60.3 µM | [20] 21.9 µM | [21] 32.1 µM | [22] 51.5 µM | [23] 47.2 µM | [24] 24.3 µM | [25] 45.8 µM | [26] 41.4 µM | [27] 72.6 µM | [28] 23.8 µM | [29] 38.1 µM | [30] 36.1 µM | [31] 20.7 µM | [32] 17.9 µM | [33] 30.7 µM | [34] > 100 µM | [35] 28.6 µM | [36] 14.3 µM | [37] 24.5 µM | [38] 28.6 µM | [39] 63.1 µM | [40] 43.8 µM | [41] 47.8 µM | [42] 42.5 µM | [43] 20.5 µM | [44] 36.1 µM | [45] 76.7 µM | [46] 35.2 µM | [47] 98.6 µM | [48] 16.4 µM | [49] 27.4 µM | [50] 45.3 µM | [51] 16.2 µM | [52] 61.7 µM | [53] 48.1 µM | [54] 42.3 µM | [55] 21.2 µM | [56] 21.6 µM

NC(=O)C(NC=O)c1ccccc1 (centres undefined)
inactive: [1] > 100 µM | [2] > 100 µM | [3] > 100 µM | [4] > 100 µM | [5] > 100 µM | [6] > 100 µM | [7] > 100 µM | [8] > 100 µM | [9] > 100 µM | [10] > 100 µM | [11] > 100 µM | [13] > 100 µM | [14] > 100 µM | [15] > 100 µM | [16] > 100 µM | [17] > 100 µM | [18] > 100 µM | [19] > 100 µM | [20] > 100 µM | [21] > 100 µM | [22] > 100 µM | [23] > 100 µM | [24] > 100 µM | [25] > 100 µM | [26] > 100 µM | [27] > 100 µM | [57] > 100 µM | [30] > 100 µM | [31] > 100 µM | [32] > 100 µM | [58] > 100 µM | [33] > 100 µM | [35] > 100 µM | [36] > 100 µM | [38] > 100 µM | [39] > 100 µM | [40] > 100 µM | [41] > 100 µM | [42] > 100 µM | [44] > 100 µM | [45] > 100 µM | [46] > 100 µM | [47] > 100 µM | [48] > 100 µM | [49] > 100 µM | [50] > 100 µM | [51] > 100 µM | [52] > 100 µM | [53] > 100 µM | [54] > 100 µM | [55] > 100 µM | [56] > 100 µM
> 100 µM: [12]
